Results taken from patent US8231888B2, “Isoxazolines for controlling invertebrate pests” (priority 2005, dated 2012).

Experiments:
Assay type in all cases: in vivo
[1] = tested on: diamondback moth (Plutella xylostella); test: Test A: control of diamondback moth on radish plant, foliar spray; details: sprayed at 250 and/or 50 ppm, 6 days, 25° C.; no asterisk (not limited to 250 ppm)
Excerpt: For evaluating control of diamondback moth (Plutella xylostella) the test unit consisted of a small open container with a 12-14-day-old radish plant inside. This was pre-infested with about 50 neonate larvae that were dispensed into the test unit via corn cob grits using a bazooka inoculator. The larvae moved onto the test plant after being dispensed into the test unit.
(§1) Test compounds were formulated using a solution containing 10% acetone, 90% water and 300 ppm X-77™ Spreader Lo-Foam Formula non-ionic surfactant containing alkylarylpolyoxyethylene, free fatty acids, glycols and isopropanol (Loveland Industries, Inc. Greeley, Colo., USA). The formulated compounds were applied in 1 mL of liquid through a SUJ2 atomizer nozzle with 1/8 JJ custom body (Spraying Systems Co. Wheaton, Ill., USA) positioned 1.27 cm (0.5 inches) above the top of each test unit. All experimental compounds in these tests were sprayed at 250 and/or 50 ppm, and the test was replicated three times. After spraying of the formulated test compound, each test unit was allowed to dry for 1 h and then a black, screened cap was placed on top. The test units were held for 6 days in a growth chamber at 25° C. and 70% relative humidity. Plant feeding damage was then visually assessed based on foliage consumed and a pest mortality rating was also counted and calculated for each test unit.

[2] = tested on: cat flea (Ctenocephalides felis Bouche); test: Test E: control of cat flea on orally dosed CD-1 mouse; details: 10 mg/kg oral, fleas applied 2 h after dosing, mortality 48 hours after flea application
Description: For evaluating control of the cat flea (Ctenocephalides felis Bouche), a CD-1® mouse (about 30 g, male, obtained from Charles River Laboratories, Wilmington, Mass.) was orally dosed with a test compound in an amount of 10 mg/kg solubilized in propylene glycol/glycerol formal (60:40). Two hours after oral administration of the test compound, approximately 8 to 16 adult fleas were applied to each mouse. The fleas were then evaluated for mortality 48 hours after flea application to the mouse.

[3] = tested on: western flower thrips (Frankliniella occidentalis); test: Test D: control of western flower thrips on Soleil bean plant, contact and/or systemic; details: sprayed at 250 and/or 50 ppm, 6 days, 25° C.; no asterisk (not limited to 250 ppm)
Description: as §1
For evaluating control of the western flower thrips (Frankliniella occidentalis) through contact and/or systemic means, the test unit consisted of a small open container with a 5-7 day old Soleil Bean plant inside. Test compounds were formulated and sprayed at 250 and/or 50 ppm, and the test was replicated three times as described for Test A. After spraying, the test units were allowed to dry for 1 hour and then 22-27 adult thrips were added to each unit and then a black, screened cap was placed on top. The test units were held for 6 days at 25° C. and 45-55% relative humidity. A mortality rating was assessed along with a plant damage rating for each test unit.

[4] = tested on: fall armyworm (Spodoptera frugiperda); test: Test B: control of fall armyworm on corn (maize) plant, foliar spray; details: sprayed at 250 and/or 50 ppm; no asterisk (not limited to 250 ppm)
Description: as §1
For evaluating control of fall armyworm (Spodoptera frugiperda) the test unit consisted of a small open container with a 4-5-day-old corn (maize) plant inside. This was pre-infested (using a core sampler) with 10-15 1-day-old larvae on a piece of insect diet. Test compounds were formulated and sprayed at 250 and/or 50 ppm as described for Test A and replicated three times. After spraying, the test units were maintained in a growth chamber and then the control efficacy was rated for each test unit as described for Test A.

Compound: O=C(NCc1ccccn1)c1ccc(C2=NOC(c3cc(Cl)cc(Cl)c3)(C(F)(F)F)C2)c2ccccc12 (stereo not shown) [Compound 2]
- control efficacy (20% or less feeding damage or 80% or more mortality) [1]: very good to excellent levels of control efficacy
- flea mortality [2]: ≥ 30%
- control efficacy (20% or less feeding damage or 80% or more mortality) [3]: very good to excellent levels of control efficacy
- control efficacy (20% or less feeding damage or 80% or more mortality) [4]: very good to excellent levels of control efficacy

Compound: O=C(NCc1ccccn1)c1ccc(C2=NOC(c3cc(Cl)cc(Cl)c3)(C(F)(F)F)C2)c2ccncc12 (stereo not shown) [Compound 104, 5-[5-(3,5-dichlorophenyl)-4,5-dihydro-5-(trifluoromethyl)-3-isoxazolyl]-N-(2-pyridinylmethyl)-8-isoquinolinecarboxamide]
- control efficacy (20% or less feeding damage or 80% or more mortality) [1]: very good to excellent levels of control efficacy
- control efficacy (20% or less feeding damage or 80% or more mortality) [3]: very good to excellent levels of control efficacy
- control efficacy (20% or less feeding damage or 80% or more mortality) [4]: very good to excellent levels of control efficacy
